PMC9131456, “Structure-Based Discovery of Lipoteichoic Acid Synthase Inhibitors” (Journal of Chemical Information and Modeling, 2022)

Assays:
[1] = tested on: S. aureus (strain Newman); experiment: Antimicrobial microdilution broth assay (growth inhibition); assay type: cell-based; conditions: for IC50: S. aureus strain Newman growth, OD600nm after 20 h at 37 °C, MH2 broth, mean ± s.e.m., n = 3
Method: All the compounds tested in this study were dissolved in dimethyl sulfoxide (DMSO) at an initial stock concentration of 20 mM and stored at −20 °C. These compounds were tested for their antimicrobial activity using the microdilution broth method[66] following the protocol described by Richter et al.[30] Briefly, overnight cultures of S. aureus (strain Newman) grown at 37 °C in cation-adjusted Mueller Hinton II (MH2) broth were adjusted to an OD600nm of 0.6 before back-diluted with a factor of 1:2000 with the same broth. After that, 200 μL of the diluted bacterial culture were dispensed into each well of 96-well plates supplemented with the compounds to the desired concentrations. The plates were then sealed with a moisture membrane barrier and incubated statically for 20 h at 37 °C. After that, the OD600nm values of the cultures in each well were measured using a CLARIOstar microplate reader (BMG Labtech). The procedures for the potentiation assays were by large the same as described above with some variations. In such assays, MRSA strain COL was grown in the 96-well plates supplemented with different concentrations of compound 9 with methicillin, carbenicillin, or polymyxin B in a checkerboard format. Their synergistic effects were quantified by OD600nm measurements using a CLARIOstar microplate reader (BMG Labtech).

eLtaS = target: T1, eLtaS (Staphylococcus aureus, UniProt Q2G093); experiment: Differential scanning fluorimetry (DSF) of eLtaS; assay type: binding, S. aureus
T1 construct: LtaS is a transmembrane protein with a large extracellular catalytic domain (denoted as eLtaS); His-tag; made in house; host or cells: E. coli (Rosetta; plasmid pProEX-eLtaS from strain ANG571)
Method: DSF assays were performed on eLtaS using the CFX Connect RT-PCR system (Bio-rad) using the protocol described previously.[43] Solutions containing 5 μM eLtaS protein in DSF buffer (25 mM Trizma-HCl, pH 7.5, 100 mM NaCl, 10% glycerol, 1 mM EDTA, 20× SYPRO Orange) with compounds at the appropriate concentrations were dispensed onto 96-well PCR plates in triplicate. The plates were sealed with Microseal “B” PCR Plate Sealing Film (Bio-rad) prior to the DSF run. The emitted fluorescence at 568 nm was measured from 25 to 65 °C at a step ramp rate of 0.5 °C every 30 s. Prism GraphPad v.5 was used for curve fitting, and the melting temperature Tm for each curves was derived from the Boltzmann equation.

[2] = tested on: LTA production in S. aureus (strain RN4220); experiment: Western blot (immunoblotting) of LTA in S. aureus cell extracts; assay type: cell-based; conditions: for LTA production: Western blot of S. aureus cell extracts, 10 μM in Figure S14, 100 μM for compound 8
Method: The procedures of LTA detection using Western Blot had previously been reported by Gründling et al.[52] To determine the effect of the compounds on LTA production, 10 mL cultures of S. aureus (strain RN4220) in MH2 broth were incubated in an orbital shaker at 37 °C with either the compounds or DMSO. When the control cultures had reached an OD600nm ∼ 1, the bacteria were pelleted and the OD600nm of the cultures normalized by resuspension with the appropriate amount of MH2 broth. Subsequently, 1 mL from each cultures was mixed with 0.5 mL of 0.1 mm glass beads, and the bacteria were lyzed by vortexing at 4 °C for 45 min. After lysis, glass beads were removed by centrifugation at 200g, and the supernatants were transferred to a new tube. The membrane-associated LTA from each culture were pelleted by an additional centrifugation step of the supernatant at 16,000g for 15 min before resuspension in 30 μL of 2× SDS. The samples were boiled at 80 °C for 20 min, and the solubilized fractions were loaded onto 15% SDS-polyacrylamide gels prior to electrophoresis at 120 V for 1.5 h. The LTA on the gels were electrotransferred onto FL-immobilon PVDF membranes at 25 V for another 1.5 h. After the electrotransfer, the membranes were blocked with 5% skimmed milk for 1 h and incubated with the antimouse LTA antibody (clone G43J, Thermo Fisher Scientific; 1:1000 dilution) overnight at 4 °C. After washing, the membranes were incubated with antimouse IRDye 680RD (1:10,000 dilution) for 1 h, washed, and visualized using the Odyssey CLx Imaging System.

HEK293 cells = experiment: LDH release cytotoxicity assay; assay type: cell-based, human; conditions: 200 μM compound, 24 h
Method: The human embryonic kidney (HEK293) cells were maintained in Dulbecco’s modified Eagle medium (DMEM) supplemented with 10% fetal bovine serum and 100 units/mL of penicillin–streptomycin. For the cell viability assays, cells were seeded onto 96-well plates at a density of 4 × 10^4 cells/well and grown at 37 °C at 5% CO2. After incubating the cells for 24 h, the culture media were replaced with fresh DMEM supplemented with 200 μM of the compounds 1771, compound 4, compound 8, and compound 9 and incubated further for an additional 24 h. The cytotoxicity of these drugs was measured using the LDH Cytotoxicity Assay Kit according to the manufacturer’s instruction (Thermo Scientific). The absorbance at 490 nm was measured with a CLARIOstar microplate reader (BMG Labtech), and the reference wavelength was set at 630 nm.

[3] = Staphylococcus aureus, NEWMAN, 20 h

T1 sequence (Q2G093 218-646): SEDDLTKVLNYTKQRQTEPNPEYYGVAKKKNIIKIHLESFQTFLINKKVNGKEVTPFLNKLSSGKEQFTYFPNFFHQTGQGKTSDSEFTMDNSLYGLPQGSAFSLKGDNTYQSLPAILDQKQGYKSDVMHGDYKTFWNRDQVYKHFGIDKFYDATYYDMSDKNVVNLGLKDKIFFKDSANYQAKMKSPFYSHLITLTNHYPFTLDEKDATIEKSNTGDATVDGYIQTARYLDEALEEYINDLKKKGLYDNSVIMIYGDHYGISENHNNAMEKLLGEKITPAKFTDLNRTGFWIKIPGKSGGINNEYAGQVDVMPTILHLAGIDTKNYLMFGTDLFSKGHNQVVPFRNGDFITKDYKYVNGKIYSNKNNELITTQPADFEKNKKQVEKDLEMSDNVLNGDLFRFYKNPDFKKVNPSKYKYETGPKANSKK

Compound: O=C(COC(=O)c1cn(-c2ccccc2)nc1-c1cccs1)Nc1nnc(-c2ccccc2)o1 [Compound 4]
- IC50 [1]: 4.06 ± 0.4 µM
- IC50 [1, 3]: 4.1 µM
- improvement in antimicrobial potency ([1]; compound 4 compared with 1771, S. aureus growth): 4 fold
- shift of the melting temperature of eLtaS (eLtaS; DSF, 5 μM eLtaS, across the range of concentrations tested): shifted the melting temperature of eLtaS more so than 1771
- LTA production [2]: able to reduce LTA production
- LTA production ([2]; listed as compound 4): decrease LTA production in a dose-dependent manner
- cytotoxicity (LDH release) (HEK293 cells): non-cytotoxic

Compound: S=C(Nc1ccc(Cl)cc1)Nc1ccc(Sc2nc3ccccc3[nH]2)cc1 [Compound 9]
- decrease in antimicrobial potency compared with compound 8 ([1]; S. aureus growth): 4 fold
- IC50 [1]: 117 µM
- IC50 [1, 3]: 117 µM
- direct binding to eLtaS (eLtaS; using ITC and DSF, DSF at 100 μM compound): binds directly to eLtaS
- electrophoretic mobility of the LTA extracted from treated S. aureus ([2]; Western blot, 100 μM compound): smearing effect
- cytotoxicity (LDH release) (HEK293 cells): not cytotoxic
